Measured values reported in patent US20210186999A1, “METHOD FOR TREATMENT OF CANCER” (National University of Ireland Galway, priority 2017, published 2021).

Experiments:
[1] = system: TNF-α+IL-1β treated MSCs co-cultured with activated T-cells; test: MSC : T-cell co-culture in mixed lymphocyte reactions (MLRs), flow cytometry; assay type: cell-based, BALB/c; settings: MSCs cultured with 100 μM inhibitor for two successive passages; MLR co-culture 96 hrs; FIGS. 3(a)-3(c)
Protocol: Materials and Methods Four female BALB/c at approximately 5 to 7 weeks were euthanized and the femur and tibia was dissected and placed in a 50 ml tube with media or PBS. Using a forceps and scissors the bones were cleaned to remove muscles and snipped on both ends to plunge out the marrow into a Petri dish containing MSC medium. A 30G needle fitted on a 1 ml syringe was used to plunge out the marrow and repeated several times till the bones appeared white. The marrow was passed through a 40 μm sieve attached to a 50 ml tube and the sieve was washed twice with medium. Medium was changed, and a cell count was performed. 10 μl cells was mixed with 40 μl PBS and 10 μl 4% acetic acid and cell count was performed. Based on the count approximately 35-50 million cells were seeded per T175 cm flask or 1 animal per flask. After isolation and culturing the MSCs were extensively characterized in vitro before and after treatment with TNF-α+IL-1β.
Sialic acid content was assayed using lectin coupled flow cytometry. Biotin labelled SNA-I and MAL-II were used to detect a 2-6 sialic acid and a 2-3 sialic acid respectively. Sialyltransferase inhibition was carried out using 100 μM of 3Fax-Peracetyl Neu5Ac. […]
MSC and TNF-α+IL-1βMSC were co-cultured at different MSC: T-cell ratios for 96 hrs. T-cell proliferation, activation, death and differentiation were determined by flow cytometry.

[2] = system: nitric oxide (NO), prostaglandin E2 (PGE2), IL-10 in MLR supernatant; test: ELISA and Griess assay of immunomodulatory molecules in supernatant of mixed lymphocyte reaction; assay type: cell-based, BALB/c; settings: MSCs cultured with 100 μM inhibitor, FIGS. 4(a)-4(c)
Protocol: Sialic acid content was assayed using lectin coupled flow cytometry. Biotin labelled SNA-I and MAL-II were used to detect a 2-6 sialic acid and a 2-3 sialic acid respectively. Sialyltransferase inhibition was carried out using 100 μM of 3Fax-Peracetyl Neu5Ac. Cells were cultured in the presence of the inhibitor for two successive passages to ensure inhibition.
Both ELISA and the Griess assay were used to determine quantity of immunomodulatory molecules in the supernatant of mixed lymphocyte reaction experiments.

How did the “proliferation of T-cells (CD4+, CD8+) in co-culture with inhibitor-treated MSCs” value [1] turn out when COC(=O)C1(OC(C)=O)OC(C(OC(C)=O)C(COC(C)=O)OC(C)=O)C(NC(C)=O)C(OC(C)=O)C1F (stereo not drawn) [3Fax-Peracetyl Neu5Ac] was run?
The value was “restored proliferation of T-cells”.

And the “suppression of activated T-cells by TNF-α+IL-1β treated MSCs exposed to the sialyltransferase inhibitor” value [1]?
Its value is “not as effective at suppressing activated T-cells”.

And the “dependence of restored T-cell proliferation on NO, PGE2 and IL-10” value [2]?
Its value is “independent of nitric oxide (NO), prostaglandin E2 (PGE2), and IL-10”.
